The subject of one experiment is Protéine C bovine. Briefly: Hydrolysis rate of chromogenic substrates by activated bovine protein C (pNA release, OD at 405 nm). It counts as biochemical. The settings on record: compared with reference product A4; underlying results expressed in ΔOD/minute at 405 nm, TEA buffer pH 8,4. The text has this: (§1) L'activité des dipeptides suivant l'invention et des tripeptides consignés dans le tableau I a été étudiée sur la thrombine humaine, la plasmine humaine, le Facteur Xa humaine et la Protéine C bovine, les tripeptides A1-A4 étant les substrats de référence du commerce. La libération du marquer HR₁ (i.e. amine H₂NRʹ₁), qui est objectivée par la variation de OD pendant l'hydrolyse enzymatique des substrats, sert d'outil de comparaison.
(§2) La lecture de OD est en général effectuée à 300-470 nm, et plus précisément à 405 nm quand R₁ est pNA, pendant environ 5 minutes.
(§3) Les essais ont été réalisés sur appareil GILFORD 203 S pour automatiser la lecture des échantillons et standardiser leur traitement.
(§4) On prépare des solutions dans du sérum physiologique renfermant chacune un enzyme : thrombine humaine 3 UNIH/ml Facteur Xa humain 3,7 nkat/ml plasmine humaine 2,3 nkat/ml protéine C bovine activée 10µg/ml
(§5) On dissout chaque peptide à tester dans le l'eau à une concentration de 10 mg/ml.
(§6) 400 µl d'enzyme dilué au 1/2 dans du tampon TEA (pH 8,4) sont ajoutés à 200 µl de chacun des différents peptides à tester. On détermine les vitesses d'hydrolyse desdits substrats en suivant l'évolution de la libération de pNA. Cette évolution peut être suivie par la lecture de la varition de OD par unité de temps (ΔOD/minute) à 405 nm.

For the next experiment, the system named is plasmine humaine. Briefly: Hydrolysis rate of chromogenic substrates by human plasmin (pNA release, OD at 405 nm). It counts as biochemical. Particulars: compared with reference product A3; underlying results expressed in ΔOD/minute at 405 nm, TEA buffer pH 8,4.
From the text: as §1, §2, §3, §4, §5, §6

This note sets out measurements from patent EP0280610B1, “Dipeptides, preparation process and use in dosing proteases” (SERBIO, priority 1987, dated 1992).

Turning to MM-L-4Hyp-L-Arg-pNA, H-TFA [EX 10], the “sensibilité à la protéine C” value with Protéine C bovine is listed as “plus sensibles à la protéine C que le produit de référence A4”. Besides, in the experiment with plasmine humaine, the “sensibilité à la plasmine” value is given as “plus sensible à la plasmine que le produit de référence A3”.
